Bridges are numbered along the chain shown (N, C = ends). Roman numbers before positions name the chains, in order. [ ]: non-standard residue; d: D form. GABA = NCCCC(=O)O
Assays:
[1] = target: SARS-CoV-2 S1S2 spike interaction with hACE2 (Severe acute respiratory syndrome coronavirus 2, UniProt P0DTC2); type: binding, SARS-CoV-2; human
SARS-CoV-2 S1S2 trimer = SARS-CoV-2 S1S2 trimer (Severe acute respiratory syndrome coronavirus 2, UniProt P0DTC2); type: binding
SARS-CoV-2 RBD = SARS-CoV-2 RBD (Severe acute respiratory syndrome coronavirus 2, UniProt P0DTC2); type: binding
[2] = tested on: pre-formed complex of SARS-CoV-2 S1S2 monomer and hACE2; type: binding, SARS-CoV-2; human
SARS-CoV-2 S1S2 monomer = SARS-CoV-2 S1S2 monomer (Severe acute respiratory syndrome coronavirus 2, UniProt P0DTC2); type: binding

Compound | saturation level of the inhibitory effect (% of S1S2 binding level without compound) [1] | steady-state reduction of S1S2 binding signal to hACE2 [1] | % of theor. Rmax (SARS-CoV-2 S1S2 trimer) [%] | complex stability increase compared with CVRBDL-3 (factor) (SARS-CoV-2 S1S2 trimer) | % of theor. Rmax (SARS-CoV-2 RBD) [%] | complex stability increase compared with CVRBDL-3 (factor) (SARS-CoV-2 RBD) | maximum displacement compared with CVRBDL-3 (factor) [2] | DC50 ([2]; read-out: DC50 (compound concentration where 50% of the maximum displacement is reached)) [nM] | increase of inhibition efficiency compared with CVRBDL-3 (factor) [1] | % of theor. Rmax (SARS-CoV-2 S1S2 monomer) [%] | complex stability increase compared with CVRBDL-3 (factor) (SARS-CoV-2 S1S2 monomer)
C[C@@H](O)[C@H](NC(=O)[C@H](Cc1c[nH]c2ccccc12)NC(=O)[C@@H](NC(=O)[C@H](CC(=O)O)NC(=O)[C@H](CC(N)=O)NC(=O)[C@H](CCCCN)NC(=O)[C@H](CCCCN)NC(=O)[C@H](CC(=O)O)NC(=O)[C@H](Cc1ccc(O)cc1)NC(=O)[C@H](CCC(=O)O)NC(=O)[C@H](Cc1c[nH]c2ccccc12)NC(=O)[C@H](Cc1c[nH]c2ccccc12)NC(=O)[C@H](Cc1ccccc1)NC(=O)[C@H](CC(=O)O)NC(=O)[C@@H](N)Cc1c[nH]cn1)[C@@H](C)O)C(=O)N[C@@H](CCCNC(=N)N)C(=O)N[C@@H](CCCNC(=N)N)C(=O)N[C@@H](CCCNC(=N)N)C(=O)N[C@@H](CCCNC(=N)N)C(N)=O [CVRBDL-3] | ~ 58% | ~ 33% | – | – | – | – | – | – | – | – | –
I: H-HDFWWEYDKKNDTWTR[GABA]R[GABA]RK-NH2 / II: H-HDFWWEYDKKNDTWTR[GABA]R[GABA]R (amide I:21-II:C) [CVRBDL-3_3] | – | – | 76 | ~ 2.5 | 65 | ~ 2 | 1.6 | 417 | ~ 11 | 104 | ~ 2.5
